Reference: patent US20250100962A1 (CITY OF HOPE, priority 2023, published 2025)
“Also recorded” adds a separate entry of the source.

Columns and labels:
C2C12 myoblasts = experiment: Clock and Wnt pathway gene/protein expression in C2C12 myoblasts during myogenic differentiation; type: cell-based, mouse
Description: Total protein (20-30 μg) was extracted using standard IP Lysis buffer (3% NaCl, 5% Tris-HCl, 10% Glycerol, 0.5% Triton X-10 in Sterile MilliQ water) and resolved on 10% SDS-Page gels followed by western blotting on Immun-Blot PVDF Membranes for Protein Blotting (Bio-rad). Antibodies used were diluted in 5% milk (Labscientific CN: M0841). Membranes were washed with TBS-T [10% TBS, 0.1% Tween™ 20 (Fisher BioReagents CN: BP377-500)]. Images were developed using Luminol solution 1:1 SuperSignal West Pico PLUS Stable Peroxide Solution (Thermo Scientific CN: 1863095) and SuperSignal West Pico PLUS Luminol Enhancer Solution (Thermo Scientific CN: 1863094) on chemiluminescence imager (GE Healthcare Bio-Sciences AB Amersham Imager 680).
Cells extracted with TRIzol™ Reagent (Ambion CN: 15596018) were collected. RNA extraction was performed with Chloroform (Fisher Chemical CN: C298-500) and Isopropanol (Fisher Chemical CN: A451SK-4) extraction followed by two purification steps with 75% Ethanol (Fisherbrand CN: HC-800-1GAL) and elution in Sterile MilliQ water.
The RNA concentration was measured using Nanodrop spectrophotometer (Thermo Fisher). Following RNA extraction, retro transcription was performed using RevertAid RT Reverse Transcription Kit (Thermo Fisher CN: K1691) and run on SimpliAmp Thermal Cycler (Thermo Fisher CN: A24811) according to the kit procedure. Quantitative PCR was performed using PowerUp™ SYBR™ Green Master Mix (Thermo Fisher CN: A25742) using a dilution of 5:2:1 master mix, RNA and H2Omq according to the protocol on ViiA 7 Real-Time PCR System (Applied Biosystems). Relative expression levels were determined using the comparative Ct method to normalize target genes to 36B4 internal controls.
Pictures were taken every day to monitor morphological progression, and proteins and RNA samples were collected on days indicated.

[1] = system: CLOCK/Bmal1-mediated transcription; experiment: Luciferase assay: 293A cells transfected with Bmal1 and CLOCK, Period2-driven luciferase reporter; type: cell-based; settings: 0.2 μM for 6 hours, Per2-luciferase reporter
Description: Cells were seeded at 4×10^5 concentration on 24 well plates. The seeding density was decided after trying several densities and choosing the one that after 24 h lead to 90% confluence. At 90% confluence cell transfection was performed using Opti-MEMTM Reduced Serum Medium (Gibco-Thermo Fisher CN:31985062) with PGL2, PRL, pcDNA3.0-BMAL1-His, PcDNA3.0-6×Myc-CLOCK (AddGene CN: 47334) pcDNA3.0-3×FLAG-cry2 plasmids and PEI max 40 k (Polysciences Inc CN: 24765-1). After 24 h of transfection, cells were treated with desired compounds and controls in 10% FBS 1% PSG DMEM media for desired times. Cells were extracted with 1×PLB provided in the Dual-Luciferase® Reporter Assay Kit (Promega CN: E1910) and transferred to 96-well black plate to be treated with LARII and Stop & Glo components according to protocol of the Dual-Luciferase® Reporter Assay Kit (Promega CN: E1910). Luminescence was measured on microplate (ELISA) reader (TECAN infinite […]). The mean and standard deviation values were calculated for each well and graphed.

[2] = system: C3H10T1/2 cells containing Per2::dLuc luciferase reporter; experiment: Bioluminescence monitoring of Per2::dLuc reporter in C3H10T1/2 cells; type: cell-based; settings: 10T1/2 cells
Description: (§1) Generation of stable adipogenic progenitor cell lines containing Per2::dLuc. 3T3-L1 preadipocytes and the C3H10T1/2 mesenchymal stem cells obtained from ATCC were used for Per2:: dLuc lentiviral transduction and stable clone selection using puromycin, as described previously (Guo et al., 2012). Briefly, cells were transfected with lentiviral packaging plasmids (pSPAX.2 and pMD2.G) and lentivirus vectors Per2::dLuc using PEI Max (Polysciences). At 48 hours post-transfection, lentiviruses were collected. 3T3-L1 and C3H10T1/2 […] cells were infected using collected lentiviral media supplemented with polybrene. 24 hours following lentiviral infection, stable cell lines were selected in the presence of 2 μg/ml puromycin.
(§2) Continuous Bioluminescence monitoring of Per2:: dLuc luciferase reporter. 3T3-L1 and C3H10T1/2 cells containing a Per2::dLuc luciferase reporter were generated as described previously (Xiong et al., 2023). […] Raw and subtracted results of real-time bioluminescence recording data for 6 days were exported, and data was calculated as luminescence counts per second, as previously described (Xiong, Li, Nam et al., 2022). […] Briefly, raw data following the first cycle from day 2 to […] were fitted to a linear baseline, and the baseline-subtracted data (polynomial number=1) were fitted to a sine wave, from which period length and goodness of fit and damping constant were determined.

[3] = system: 3T3-L1 preadipocytes containing Per2::dLuc luciferase reporter; experiment: Bioluminescence monitoring of Per2::dLuc reporter in 3T3-L1 preadipocytes; type: cell-based
Description: as §1, §2

C57/BL6 mice = experiment: Metabolic cage monitoring of C57/BL6 mice after intraperitoneal injection; type: in vivo, mouse; settings: 5 mg/Kg IP daily
Description: To examine potential effects of CM002 on central clock located in suprachiasmatic nuclei that controls food intake, activity and sleep rhythms, we administered CM002 (5 mg/Kg) together with DMSO as vehicle control using daily IP injections in normal C57/BL6 mice. Mice received daily injections for 3 doses and their food and water intake, activity level and energy expenditure were monitored using metabolic cages for 3 days.

| Compound | CLOCK and Bmal1 protein levels with targets Rev-erbα and Cry2 (C2C12 myoblasts; 0.5 uM, through 6 days of differentiation) | induction of Wnt10a, Fzd5 and β-catenin in Bmal1-deficient myoblasts (C2C12 myoblasts; BMKD myoblasts) | induction of Clock, Bmal1, Rev-erbα and Per2 in Bmal1 shRNA (BMKD) cells (C2C12 myoblasts; day 4 of myogenic differentiation, vs scrambled control) | Wnt10a, Fzd5 and β-catenin expression (C2C12 myoblasts; scrambled control (SC) myoblasts, RT-qPCR) | induction of CLOCK/Bmal1-activated transcription [1] [%] | clock period length [2] | clock cycling amplitude ([2]; 1 and 2 μM) | clock cycling amplitude [3] | clock period length [3] | daily ambulatory activity levels (C57/BL6 mice) | water consumption (C57/BL6 mice) | accumulative food consumption, relative to normal food intake level (C57/BL6 mice; 3 doses, after 3 days) [%] | energy expenditure (C57/BL6 mice; calculated from oxygen consumption) |
| --- | --- | --- | --- | --- | --- | --- | --- | --- | --- | --- | --- | --- | --- |
| [H]/N=C(\N/C(=N/[H])NCCCCCCNC(=N)NC(=N)Nc1ccc(Cl)cc1)Nc1ccc(Cl)cc1 [CHX, chlorhexidine] | robustly stimulated | completely abolished in Bmal1-deficient myoblasts; also recorded: abolished in Bmal1-deficient cells | completely abolished in the BMKD cells | significantly induced by CHX at 0.5 μM with tendency toward induction at 0.2 μM | ~26 | dose-dependent clock period shortening, with this effect significant only for 1 and 2 μM | augment clock cycling amplitude | increasing amplitude | reducing period length |  |  |  |  |
| CCCCCC/C=N/C(=N)NC(=N)Nc1ccc(Cl)cc1 [CM002] |  |  |  |  |  |  |  |  |  | tendency toward reduction although not significantly altered | remains comparable between groups | ~25 | persistently elevated |
